This note sets out measurements from ChEMBL document CHEMBL1129894, “Dihydroxypyrrolidines C-linked to galactose. Total synthesis of a specific inhibitor of -mannosidases” (Bioorg Med Chem Lett, 1997).

SMILES strings stand for the structures. Calls of active or inactive are those of the source. The calls are words filed in the database; no cut-off is given here.

The subject of one assay is Aspergillus niger. The assay can be described thus: Inhibition of the enzyme beta-D-xylosidase from Aspergillus niger was determined at 1 mM concentration of the compound; No inhibition.
A short description of assay [1]: Inhibition of the enzyme Alpha-galactosidase from coffee beans was determined at 1 mM concentration of the compound; No inhibition. Conditions: Coffea arabica.
Assay [2] is described as follows: Inhibition of the enzyme beta-galactosidase from Aspergillus oryzae was determined at 1 mM concentration of the compound; No inhibition.
In assay [3] the target is T1, Tissue alpha-L-fucosidase (Homo sapiens) (UniProt P04066).
T1 sequence (whole entry): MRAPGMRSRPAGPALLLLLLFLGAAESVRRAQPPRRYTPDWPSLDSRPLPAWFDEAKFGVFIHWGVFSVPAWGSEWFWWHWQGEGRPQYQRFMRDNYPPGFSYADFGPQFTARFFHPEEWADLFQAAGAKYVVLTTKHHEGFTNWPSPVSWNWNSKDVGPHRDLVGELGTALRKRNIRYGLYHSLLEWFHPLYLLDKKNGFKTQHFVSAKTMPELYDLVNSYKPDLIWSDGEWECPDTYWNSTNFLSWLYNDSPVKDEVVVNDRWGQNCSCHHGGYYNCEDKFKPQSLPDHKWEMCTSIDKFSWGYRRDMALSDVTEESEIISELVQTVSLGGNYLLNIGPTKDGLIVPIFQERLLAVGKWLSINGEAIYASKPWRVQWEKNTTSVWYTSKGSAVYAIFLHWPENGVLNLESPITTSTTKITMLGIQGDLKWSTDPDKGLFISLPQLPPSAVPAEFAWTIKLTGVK
The assay can be described thus: Inhibition of the enzyme alpha-L-fucosidase from bovine epididymis was determined at 1 mM concentration of the compound; No inhibition. The conditions noted are these: Bos taurus, target entry is the homologue from another species.

The species entered for assay [4] is Bos taurus. In words: Inhibition of the enzyme beta-N-acetylglucosaminidase from bovine epididymis A was determined at 1 mM concentration of the compound; No inhibition.
For assay [5], the species on record is Bos taurus. In words: Inhibition of the enzyme beta-N-acetylglucosaminidase from bovine epididymis B was determined at 1 mM concentration of the compound; No inhibition.
Assay [6] in a line: Inhibition of the enzyme Alpha-galactosidase from Aspergillus niger was determined at 1 mM concentration of the compound; No inhibition.
In another assay the test system is Oryza sativa. In words: Inhibition of the enzyme alpha-glucosidase (maltase) from rice was determined at 1 mM concentration of the compound; No inhibition.
The subject of another assay is Prunus dulcis. In words: Inhibition of the enzyme beta-glucosidase from almonds was determined at 1 mM concentration of the compound; No inhibition.
Assay [7] deals with Beta-galactosidase (Escherichia coli) (UniProt Q8VNN2). In words: Inhibition of the enzyme beta-galactosidase from Escherichia coli was determined at 1 mM concentration of the compound; No inhibition.
Beta-galactosidase (Escherichia coli), sequence (Q8VNN2 whole entry, looked up): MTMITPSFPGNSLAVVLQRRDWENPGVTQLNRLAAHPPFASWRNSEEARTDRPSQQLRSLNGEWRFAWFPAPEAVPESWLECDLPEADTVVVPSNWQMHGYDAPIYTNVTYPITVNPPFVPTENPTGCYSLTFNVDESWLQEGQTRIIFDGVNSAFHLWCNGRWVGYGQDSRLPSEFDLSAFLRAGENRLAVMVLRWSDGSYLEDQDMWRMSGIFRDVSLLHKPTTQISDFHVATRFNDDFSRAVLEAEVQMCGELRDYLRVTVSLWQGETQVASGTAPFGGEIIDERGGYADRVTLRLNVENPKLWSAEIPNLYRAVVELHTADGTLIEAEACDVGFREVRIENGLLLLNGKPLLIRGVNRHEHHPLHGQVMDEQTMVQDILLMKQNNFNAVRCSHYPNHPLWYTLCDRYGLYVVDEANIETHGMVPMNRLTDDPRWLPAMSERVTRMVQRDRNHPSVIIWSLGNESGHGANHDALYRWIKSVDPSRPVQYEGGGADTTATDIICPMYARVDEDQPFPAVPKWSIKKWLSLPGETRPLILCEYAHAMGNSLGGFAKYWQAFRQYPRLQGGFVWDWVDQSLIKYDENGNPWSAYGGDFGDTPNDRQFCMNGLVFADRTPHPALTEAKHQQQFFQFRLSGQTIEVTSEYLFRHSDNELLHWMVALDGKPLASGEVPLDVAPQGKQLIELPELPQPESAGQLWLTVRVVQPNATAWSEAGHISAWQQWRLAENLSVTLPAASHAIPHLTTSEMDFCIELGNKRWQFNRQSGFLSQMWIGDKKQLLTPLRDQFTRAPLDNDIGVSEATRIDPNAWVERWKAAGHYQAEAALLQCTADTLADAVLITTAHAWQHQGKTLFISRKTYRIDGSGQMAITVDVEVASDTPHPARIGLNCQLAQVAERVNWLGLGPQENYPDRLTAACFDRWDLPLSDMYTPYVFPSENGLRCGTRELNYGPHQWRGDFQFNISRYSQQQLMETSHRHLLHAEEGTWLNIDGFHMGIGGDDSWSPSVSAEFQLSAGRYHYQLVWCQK
Assay [8] is described as follows: Inhibition of the enzyme alpha-mannosidase from almonds was determined at 1 mM concentration of the compound; Moderate inhibition.
Assay [9] concerns Caldicellulosiruptor saccharolyticus. The assay can be described thus: Inhibition of the enzyme beta-glucosidase from Caldocellum saccharolyticum was determined at 1 mM concentration of the compound; No inhibition.
A further assay concerns jack. In words: Inhibition of the enzyme beta-N-acetylglucosaminidase from jack beans was determined at 1 mM concentration of the compound; No inhibition.
Assay [10] addresses T2, Beta-galactosidase (Aspergillus niger) (UniProt P29853).
T2 sequence (whole entry): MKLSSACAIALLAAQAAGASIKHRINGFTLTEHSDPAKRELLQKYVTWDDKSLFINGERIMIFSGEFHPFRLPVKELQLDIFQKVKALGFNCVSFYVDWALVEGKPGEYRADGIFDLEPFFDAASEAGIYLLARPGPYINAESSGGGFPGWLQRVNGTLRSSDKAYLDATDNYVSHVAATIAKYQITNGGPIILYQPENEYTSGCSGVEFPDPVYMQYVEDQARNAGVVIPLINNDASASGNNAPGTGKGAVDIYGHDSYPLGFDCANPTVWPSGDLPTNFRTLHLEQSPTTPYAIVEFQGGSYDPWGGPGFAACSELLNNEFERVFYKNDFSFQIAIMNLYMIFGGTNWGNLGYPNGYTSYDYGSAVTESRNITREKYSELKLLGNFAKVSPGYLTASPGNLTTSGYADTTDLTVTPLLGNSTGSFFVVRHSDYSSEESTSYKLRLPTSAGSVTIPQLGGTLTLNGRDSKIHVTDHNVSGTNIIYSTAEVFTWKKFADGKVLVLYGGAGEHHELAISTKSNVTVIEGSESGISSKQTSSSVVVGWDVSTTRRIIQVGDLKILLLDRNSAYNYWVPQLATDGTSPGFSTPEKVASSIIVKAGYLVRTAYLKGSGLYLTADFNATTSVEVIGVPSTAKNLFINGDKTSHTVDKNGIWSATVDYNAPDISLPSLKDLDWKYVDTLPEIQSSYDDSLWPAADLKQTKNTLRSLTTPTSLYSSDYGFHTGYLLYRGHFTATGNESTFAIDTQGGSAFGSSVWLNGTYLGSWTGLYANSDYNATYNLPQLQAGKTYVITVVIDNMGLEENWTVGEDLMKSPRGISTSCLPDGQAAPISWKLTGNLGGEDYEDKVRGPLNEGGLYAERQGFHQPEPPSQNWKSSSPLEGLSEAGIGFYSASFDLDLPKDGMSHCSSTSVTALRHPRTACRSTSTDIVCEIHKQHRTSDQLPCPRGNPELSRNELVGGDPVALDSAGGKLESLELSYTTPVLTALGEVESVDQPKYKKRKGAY
The assay can be described thus: Inhibition of the enzyme beta-galactosidase from Aspergillus niger was determined at 1 mM concentration of the compound; No inhibition.

Assay [11] concerns Saccharomyces cerevisiae. The assay can be described thus: Inhibition of the enzyme alpha-glucosidase (isomaltase) from baker yeast was determined at 1 mM concentration of the compound; No inhibition.
In assay [12] the target is Glucoamylase (Aspergillus niger) (UniProt P69328). In words: Inhibition of the enzyme amyloglucosidase from Aspergillus niger was determined at 1 mM concentration of the compound; No inhibition.
Glucoamylase (Aspergillus niger), sequence (P69328 whole entry): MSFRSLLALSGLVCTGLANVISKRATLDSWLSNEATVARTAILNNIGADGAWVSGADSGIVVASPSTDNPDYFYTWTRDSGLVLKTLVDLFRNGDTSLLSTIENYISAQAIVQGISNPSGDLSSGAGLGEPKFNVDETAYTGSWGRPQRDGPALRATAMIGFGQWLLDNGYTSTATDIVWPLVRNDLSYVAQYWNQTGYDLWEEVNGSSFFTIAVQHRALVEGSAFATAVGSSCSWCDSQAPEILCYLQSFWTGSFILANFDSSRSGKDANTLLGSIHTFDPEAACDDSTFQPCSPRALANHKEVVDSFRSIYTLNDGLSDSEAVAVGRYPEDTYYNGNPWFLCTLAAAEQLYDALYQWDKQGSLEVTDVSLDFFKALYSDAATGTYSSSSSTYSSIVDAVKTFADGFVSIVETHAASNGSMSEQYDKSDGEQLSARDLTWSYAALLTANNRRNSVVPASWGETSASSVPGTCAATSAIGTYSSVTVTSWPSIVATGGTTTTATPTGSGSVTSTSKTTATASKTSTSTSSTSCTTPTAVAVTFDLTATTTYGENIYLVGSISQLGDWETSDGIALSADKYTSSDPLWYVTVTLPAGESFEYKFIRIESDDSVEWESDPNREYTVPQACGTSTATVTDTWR
The target of assay [13] is T1, Tissue alpha-L-fucosidase (Homo sapiens). In words: Inhibition of the enzyme alpha-L-fucosidase from human placenta was determined at 1 mM concentration of the compound; No inhibition.
Assay [14] can be described thus: Inhibition of the enzyme Beta-mannosidase from Helix pomatia was determined at 1 mM concentration of the compound; No inhibition.
For assay [15], the target named is T3, Alpha-N-acetylgalactosaminidase (Homo sapiens) (UniProt P17050).
T3 sequence (whole entry): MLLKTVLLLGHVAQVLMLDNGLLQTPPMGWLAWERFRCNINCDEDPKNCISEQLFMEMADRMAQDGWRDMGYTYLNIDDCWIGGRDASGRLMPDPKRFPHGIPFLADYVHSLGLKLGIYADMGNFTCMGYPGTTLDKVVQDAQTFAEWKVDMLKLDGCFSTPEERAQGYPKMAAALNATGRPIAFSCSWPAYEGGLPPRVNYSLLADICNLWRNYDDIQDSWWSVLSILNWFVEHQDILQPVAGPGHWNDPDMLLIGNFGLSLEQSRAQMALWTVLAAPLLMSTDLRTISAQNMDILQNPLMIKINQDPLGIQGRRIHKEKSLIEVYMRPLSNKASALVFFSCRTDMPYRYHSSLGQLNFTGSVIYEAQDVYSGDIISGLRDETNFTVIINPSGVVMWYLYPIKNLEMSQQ
In words: Inhibition of the enzyme alpha-N-acetylgalactosaminidase from chicken liver was determined at 1 mM concentration of the compound; No inhibition. The conditions noted are these: Gallus gallus, target entry is the homologue from another species.

A short description of assay [16]: Inhibition of the enzyme beta-galactosidase from jack beans was determined at 1 mM concentration of the compound; No inhibition.
The target in assay [17] is T4, Beta-galactosidase (Bos taurus) (UniProt Q58D55).
T4 sequence (whole entry): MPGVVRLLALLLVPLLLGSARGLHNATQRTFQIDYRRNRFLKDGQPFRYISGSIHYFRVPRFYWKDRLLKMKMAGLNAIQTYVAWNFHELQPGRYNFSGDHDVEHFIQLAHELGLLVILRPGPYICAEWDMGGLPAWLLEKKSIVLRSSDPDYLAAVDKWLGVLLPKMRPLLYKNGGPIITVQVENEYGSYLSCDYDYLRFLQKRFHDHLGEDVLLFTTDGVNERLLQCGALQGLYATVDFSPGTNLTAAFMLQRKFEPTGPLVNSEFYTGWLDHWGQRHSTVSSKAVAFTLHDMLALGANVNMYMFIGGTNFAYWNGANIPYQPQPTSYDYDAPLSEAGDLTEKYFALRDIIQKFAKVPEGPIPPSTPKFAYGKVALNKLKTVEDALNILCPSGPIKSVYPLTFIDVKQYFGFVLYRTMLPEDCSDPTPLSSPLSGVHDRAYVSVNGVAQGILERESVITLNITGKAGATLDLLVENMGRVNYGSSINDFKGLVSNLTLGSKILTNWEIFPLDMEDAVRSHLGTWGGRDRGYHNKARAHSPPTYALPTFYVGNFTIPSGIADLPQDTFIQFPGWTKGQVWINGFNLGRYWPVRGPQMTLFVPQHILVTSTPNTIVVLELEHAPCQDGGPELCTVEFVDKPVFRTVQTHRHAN
In words: Inhibition of the enzyme beta-galactosidase from bovine liver was determined at 1 mM concentration of the compound; No inhibition.

For assay [18], the system named is Saccharomyces cerevisiae. In words: Inhibition of the enzyme alpha-glucosidase (maltase) from yeast was determined at 1 mM concentration of the compound; No inhibition.
Assay [19] in a line: Inhibition of the enzyme amyloglucosidase from Rhizopus mold was determined at 1 mM concentration of the compound; No inhibition.
The nature of assay [20]: Inhibition of the enzyme Alpha-galactosidase from Escherichia coli was determined at 1 mM concentration of the compound; No inhibition.
Assay [21] can be described thus: Inhibition of the enzyme alpha-mannosidase from almonds was determined at 1 mM concentration of the compound; No inhibition.

Regarding `OCC1O[C@H](O)[C@H](O)[C@@H]([C@H](O)C2NCC(O)C2O)C1O` (stereo partly drawn), the inhibition result (in the assay on Aspergillus niger; in assay [1]; in assay [2]; in [3]; in the assay listed under Bos taurus [4]; in the assay listed under Bos taurus [5]) was “inactive” in each case. Moreover, the inhibition entry (in assay [6]; with Oryza sativa; in the assay on Prunus dulcis; in assay [7]; in assay [9]; with jack) was “inactive” in each case. The inhibition result (in assay [10]; in the assay on Saccharomyces cerevisiae [11]; in [12]; in assay [13]; in assay [14]; in [15]) was “inactive” in each case. Further, the inhibition result (in assay [16]; in [17]; with Saccharomyces cerevisiae [18]; in assay [19]; in assay [20]) was “inactive” in each case. The compound also displayed an inhibition in assay [8] of 27%.
Take `OCC1O[C@H](O)C(O)[C@@H]([C@H](O)C2NCC(O)C2O)C1O` (stereo partly drawn): the inhibition entry (in the assay with Aspergillus niger; in assay [1]; in assay [2]; in [3]; in the assay filed under Bos taurus [4]; in the assay filed under Bos taurus [5]) was “inactive” throughout. The inhibition result (in [6]; in the assay on Oryza sativa; in the assay with Prunus dulcis; in [7]; in assay [9]; in the assay on jack) was “inactive” throughout. Besides, the inhibition entry (in [21]; in assay [10]; in the assay on Saccharomyces cerevisiae [11]; in assay [12]; in assay [13]; in assay [14]) was “inactive” throughout. Moreover, the inhibition result (in [15]; in [16]; in assay [17]; in the assay with Saccharomyces cerevisiae [18]; in [19]; in [20]) was “inactive” each time.
